Results: ChEMBL document CHEMBL1141668, “Synthesis and biological activity of imidazopyridine anticoccidial agents: Part II” (Eur J Med Chem, 2008)

Experiments:
Eimeria maxima [1] = assay: Anticoccidial activity against Eimeria maxima in chickens assessed as reduction of oocysts at 25 ppm measured after 8 days by ExMAC assay relative to untreated control; format: functional; design: scale not given: the % may be the effect or the level left
[2] = molecular target: cGMP-dependent protein kinase (Eimeria tenella, UniProt Q8MMZ8); assay: Inhibition of Eimeria tenella cGMP-dependent protein kinase
Eimeria acervulina [3] = assay: Anticoccidial activity against Eimeria acervulina in chickens assessed as reduction of oocysts at 25 ppm measured after 8 days by ExMAC assay relative to untreated control; format: functional; design: scale not given: the % may be the effect or the level left
Eimeria tenella [4] = assay: Anticoccidial activity against Eimeria tenella in chickens assessed as reduction of oocysts at 25 ppm measured after 8 days by ExMAC assay relative to untreated control; format: functional; design: scale not given: the % may be the effect or the level left
Eimeria mitis [5] = assay: Anticoccidial activity against Eimeria mitis in chickens assessed as reduction of oocysts at 25 ppm measured after 8 days by ExMAC assay relative to untreated control; format: functional; design: scale not given: the % may be the effect or the level left
Eimeria maxima [6] = assay: Anticoccidial activity against Eimeria maxima in chickens assessed as reduction of oocysts at 12.5 ppm measured after 8 days by ExMAC assay relative to untreated control; format: functional; design: scale not given: the % may be the effect or the level left
Eimeria tenella [7] = assay: Anticoccidial activity against Eimeria tenella in chickens assessed as reduction of oocysts at 12.5 ppm measured after 8 days by ExMAC assay relative to untreated control; format: functional; design: scale not given: the % may be the effect or the level left
Eimeria acervulina [8] = assay: Anticoccidial activity against Eimeria acervulina in chickens assessed as reduction of oocysts at 12.5 ppm measured after 8 days by ExMAC assay relative to untreated control; format: functional; design: scale not given: the % may be the effect or the level left
Eimeria tenella [9] = assay: Anticoccidial activity against Eimeria tenella in chickens assessed as reduction of oocysts at 6.25 ppm measured after 8 days by ExMAC assay relative to untreated control; format: functional; design: scale not given: the % may be the effect or the level left
Eimeria mitis [10] = assay: Anticoccidial activity against Eimeria mitis in chickens assessed as reduction of oocysts at 12.5 ppm measured after 8 days by ExMAC assay relative to untreated control; format: functional; design: scale not given: the % may be the effect or the level left
Eimeria maxima [11] = assay: Anticoccidial activity against Eimeria maxima in chickens assessed as reduction of oocysts at 6.25 ppm measured after 8 days by ExMAC assay relative to untreated control; format: functional; design: scale not given: the % may be the effect or the level left
Eimeria mitis [12] = assay: Anticoccidial activity against Eimeria mitis in chickens assessed as reduction of oocysts at 6.25 ppm measured after 8 days by ExMAC assay relative to untreated control; format: functional; design: scale not given: the % may be the effect or the level left
Eimeria acervulina [13] = assay: Anticoccidial activity against Eimeria acervulina in chickens assessed as reduction of oocysts at 6.25 ppm measured after 8 days by ExMAC assay relative to untreated control; format: functional; design: scale not given: the % may be the effect or the level left

cGMP-dependent protein kinase, sequence (Q8MMZ8 whole entry): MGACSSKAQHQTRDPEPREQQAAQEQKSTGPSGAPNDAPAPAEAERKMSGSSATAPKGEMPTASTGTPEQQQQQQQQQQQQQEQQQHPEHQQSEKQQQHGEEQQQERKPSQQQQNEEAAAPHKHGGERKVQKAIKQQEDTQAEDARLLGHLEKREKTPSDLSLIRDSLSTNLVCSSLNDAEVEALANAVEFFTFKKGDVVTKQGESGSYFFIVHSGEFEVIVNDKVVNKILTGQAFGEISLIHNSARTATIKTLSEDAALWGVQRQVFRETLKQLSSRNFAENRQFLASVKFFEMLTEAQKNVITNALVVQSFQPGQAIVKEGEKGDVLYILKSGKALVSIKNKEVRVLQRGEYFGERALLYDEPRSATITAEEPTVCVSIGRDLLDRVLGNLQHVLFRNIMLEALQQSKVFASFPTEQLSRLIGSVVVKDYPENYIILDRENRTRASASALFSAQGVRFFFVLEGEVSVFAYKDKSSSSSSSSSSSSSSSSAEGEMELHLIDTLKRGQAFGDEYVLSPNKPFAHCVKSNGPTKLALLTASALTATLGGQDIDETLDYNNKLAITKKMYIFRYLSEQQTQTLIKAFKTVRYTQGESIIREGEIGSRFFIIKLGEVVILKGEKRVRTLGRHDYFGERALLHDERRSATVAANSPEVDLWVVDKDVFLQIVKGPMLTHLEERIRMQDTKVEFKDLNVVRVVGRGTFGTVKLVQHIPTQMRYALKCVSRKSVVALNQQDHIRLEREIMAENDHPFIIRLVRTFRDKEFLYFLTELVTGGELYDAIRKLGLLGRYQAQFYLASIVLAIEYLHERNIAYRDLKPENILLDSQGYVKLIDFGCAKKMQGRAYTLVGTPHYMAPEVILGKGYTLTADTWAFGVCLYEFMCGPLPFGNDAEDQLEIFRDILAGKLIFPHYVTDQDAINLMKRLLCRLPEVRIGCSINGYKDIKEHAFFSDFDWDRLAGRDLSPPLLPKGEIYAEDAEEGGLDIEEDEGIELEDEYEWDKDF

Row | Structure (SMILES) | IC50 [2] [nM] | Activity (Eimeria maxima [1]) [%] | Activity (Eimeria acervulina [3]) [%] | Activity (Eimeria tenella [4]) [%] | Activity (Eimeria mitis [5]) [%] | Activity (Eimeria maxima [6]) [%] | Activity (Eimeria tenella [7]) [%] | Activity (Eimeria acervulina [8]) [%] | Activity (Eimeria tenella [9]) [%] | Activity (Eimeria mitis [10]) [%] | Activity (Eimeria maxima [11]) [%] | Activity (Eimeria mitis [12]) [%] | Activity (Eimeria acervulina [13]) [%]
1 | CN(C)Cc1ccn2c(-c3ccnc(N)n3)c(-c3ccc(F)cc3)nc2c1 |  | 80 | 80 | 80 | 80 | 80 | 80 | 80 | 80 | 80 | <50 | <50 | 80
2 | CNC(=O)c1ccn2c(-c3ccnc(N)n3)c(-c3ccc(F)cc3)nc2c1 | 3.1 | 50 | <50 | <50 | <50 |  |  |  |  |  |  |  | 
3 | CN(C)CCCc1ccn2c(-c3ccnc(N)n3)c(-c3ccc(F)cc3)nc2c1 | 0.27 | 100 | 80 | 80 | 80 | <50 | 80 | 80 | <50 | <50 | <50 | <50 | <50
4 | CCCC(c1ccn2c(-c3ccnc(N)n3)c(-c3ccc(F)cc3)nc2c1)N(C)C (stereo not given) | 0.065 | 100 | 100 | 100 | 100 | <50 | <50 | 80 | <50 | <50 | 100 | <50 | 80
5 | CCC(C)CN1CCC(c2ccn3c(-c4ccnc(N)n4)c(-c4ccc(F)cc4)nc3c2)CC1 (stereo not given) | 0.13 |  |  |  |  |  | 80 | 80 |  | <50 |  |  | 
6 | Nc1nccc(-c2c(-c3ccc(F)cc3)nc3cc(C4CCN(CCO)CC4)ccn23)n1 | 0.044 | 50 | 99 | 99 | <50 | 80 | 99 | 50 | 99 | 80 | <50 | <50 | <50
7 | CC(C)CN1CCC(c2ccn3c(-c4ccnc(N)n4)c(-c4ccc(F)cc4)nc3c2)CC1 | 0.12 | 80 | 100 | 80 | 80 | 100 | 100 | 80 | 50 | 80 | <50 | <50 | 80
8 | CN1CCN(Cc2ccn3c(-c4ccnc(N)n4)c(-c4ccc(F)cc4)nc3c2)CC1 | 2.2 | 80 | <50 | 80 | 80 | <50 | <50 | <50 |  | <50 |  |  | 
9 | COCCN(C)Cc1ccn2c(-c3ccnc(N)n3)c(-c3ccc(F)cc3)nc2c1 | 0.26 |  |  |  |  | <50 | <50 | <50 |  | <50 |  |  | 
10 | CN(C)CC(C)(C)c1ccn2c(-c3ccnc(N)n3)c(-c3ccc(F)cc3)nc2c1 | 0.2 | <50 | 80 | 100 | 80 | <50 | 80 | 80 | <50 | <50 | <50 | <50 | <50
11 | CC(C)(CN)c1ccn2c(-c3ccnc(N)n3)c(-c3ccc(F)cc3)nc2c1 | 0.26 | <50 | <50 | 50 | 50 |  |  |  |  |  |  |  | 
12 | CCCCCCN1CCC(c2ccn3c(-c4ccnc(N)n4)c(-c4ccc(F)cc4)nc3c2)CC1 | 0.13 |  |  |  |  |  | 50 | <50 |  | <50 |  |  | 
13 | CC(C)(C)NCc1ccn2c(-c3ccnc(N)n3)c(-c3ccc(F)cc3)nc2c1 | 0.35 |  |  |  |  |  |  |  |  |  |  |  | 
14 | CN(C)c1ccn2c(-c3ccnc(N)n3)c(-c3ccc(F)cc3)nc2c1 | 3 | 80 | 80 | 80 | <50 | 80 | 50 | <50 | <50 | <50 | <50 | <50 | <50
15 | CCC(CN(C)C)c1ccn2c(-c3ccnc(N)n3)c(-c3ccc(F)cc3)nc2c1 (stereo not given) | 0.4 | 100 | <50 | 100 | <50 |  |  |  |  |  |  |  | 
16 | CN(C)CC(F)c1ccn2c(-c3ccnc(N)n3)c(-c3ccc(F)cc3)nc2c1 (stereo not given) | 0.59 | 100 | 100 | 100 | 100 | 100 | 80 | 80 | 80 | 50 | 100 | <50 | <50
17 | CN(C)C(=N)c1ccn2c(-c3ccnc(N)n3)c(-c3ccc(F)cc3)nc2c1 | 2.5 | <50 | 50 | <50 | <50 |  |  |  |  |  |  |  | 
18 | CCCC(C)CN1CCC(c2ccn3c(-c4ccnc(N)n4)c(-c4ccc(F)cc4)nc3c2)CC1 (stereo not given) | 0.12 |  |  |  |  |  | 80 | <50 |  | <50 |  |  | 

Continued by falling IC50 [2], values first:

Row | IC50 [2] [nM] | Structure (SMILES) | Activity (Eimeria maxima [1]) [%] | Activity (Eimeria acervulina [3]) [%] | Activity (Eimeria tenella [4]) [%] | Activity (Eimeria mitis [5]) [%] | Activity (Eimeria maxima [6]) [%] | Activity (Eimeria tenella [7]) [%] | Activity (Eimeria acervulina [8]) [%] | Activity (Eimeria tenella [9]) [%] | Activity (Eimeria mitis [10]) [%] | Activity (Eimeria maxima [11]) [%] | Activity (Eimeria mitis [12]) [%] | Activity (Eimeria acervulina [13]) [%]
19 | 1.33 | CN(CC#N)Cc1ccn2c(-c3ccnc(N)n3)c(-c3ccc(F)cc3)nc2c1 | <50 | 80 | 80 | <50 |  |  |  |  |  |  |  | 
20 | 0.65 | C#CCN(C)Cc1ccn2c(-c3ccnc(N)n3)c(-c3ccc(F)cc3)nc2c1 |  |  |  |  | <50 | <50 | <50 |  | <50 |  |  | 
21 | 0.4 | CN(CCO)Cc1ccn2c(-c3ccnc(N)n3)c(-c3ccc(F)cc3)nc2c1 |  |  |  |  | <50 | <50 | <50 |  | <50 |  |  | 
22 | 0.23 | CN1CCN(c2ccn3c(-c4ccnc(N)n4)c(-c4ccc(F)cc4)nc3c2)CC1 | 100 | <50 | 80 | 80 | <50 | 80 | <50 | <50 | 50 | <50 | 50 | <50
23 | 0.11 | CC(C)(C)CCN1CCC(c2ccn3c(-c4ccnc(N)n4)c(-c4ccc(F)cc4)nc3c2)CC1 |  |  |  |  |  | 80 | <50 |  | <50 |  |  | 
24 | 0.11 | Nc1nccc(-c2c(-c3ccc(F)cc3)nc3cc(C4CCN(Cc5ccccc5)CC4)ccn23)n1 | 100 | <50 | 80 | <50 | 80 | 80 | 80 | <50 | <50 | 80 | <50 | <50
25 | 0.095 | Nc1nccc(-c2c(-c3ccc(F)cc3)nc3cc(C4CCN(CC5CC5)CC4)ccn23)n1 | 80 | 100 | 100 | 80 | 80 | 100 | 80 | 80 | 80 | 80 | 80 | 80
26 | 0.07 | Nc1nccc(-c2c(-c3ccc(F)cc3)nc3cc(C4CCN(CCc5ccccc5)CC4)ccn23)n1 |  |  |  |  |  | <50 | <50 |  | <50 |  |  | 
27 | 0.065 | Nc1nccc(-c2c(-c3ccc(F)cc3)nc3cc(C4CCN(CCCO)CC4)ccn23)n1 | <50 | 80 | 100 | <50 | <50 | 100 | 50 | <50 | <50 | <50 | <50 | 50
28 | 0.046 | Nc1nccc(-c2c(-c3ccc(F)cc3)nc3cc(C4CCNCC4)ccn23)n1 | 100 | <50 | <50 | <50 |  |  |  |  |  |  |  | 
